Several values for one entry are separate records, joined by “and”; a condition that tells them apart may be missing. Identical values can stand only once.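 Following 48 hours of exposure in 96-well plates, responses at five concentrations were used to interpolate endpoints linearly. GI50: concentration for 50% inhibition of growth. At the TGI there is no net growth.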
Legend:
Experiment in all cases: growth of human tumour cells (NCI), 48 h
SW-620 colon = test system: SW-620 colon
TK-10 renal = test system: TK-10 renal
RXF 393 renal = test system: RXF 393 renal
OVCAR-4 ovarian = test system: OVCAR-4 ovarian
MALME-3M melanoma = test system: MALME-3M melanoma
LOX IMVI melanoma = test system: LOX IMVI melanoma
SK-MEL-28 melanoma = test system: SK-MEL-28 melanoma
EKVX NSCLC = test system: EKVX NSCLC
OVCAR-5 ovarian = test system: OVCAR-5 ovarian
MCF7 breast = test system: MCF7 breast

| Structure (SMILES) | TGI (SW-620 colon) [µM] | TGI (TK-10 renal) [µM] | TGI (RXF 393 renal) | TGI (OVCAR-4 ovarian) [µM] | TGI (MALME-3M melanoma) | TGI (LOX IMVI melanoma) [µM] | TGI (SK-MEL-28 melanoma) [µM] | TGI (EKVX NSCLC) | TGI (OVCAR-5 ovarian) | GI50 (SW-620 colon) [µM] | GI50 (RXF 393 renal) | GI50 (MCF7 breast) [µM] | TGI (MCF7 breast) [µM] | GI50 (OVCAR-4 ovarian) [µM] | GI50 (LOX IMVI melanoma) [µM] | GI50 (SK-MEL-28 melanoma) | GI50 (EKVX NSCLC) | GI50 (OVCAR-5 ovarian) [µM] | GI50 (TK-10 renal) [µM] | GI50 (MALME-3M melanoma) [µM] |
| --- | --- | --- | --- | --- | --- | --- | --- | --- | --- | --- | --- | --- | --- | --- | --- | --- | --- | --- | --- | --- |
| Cc1nc(Nc2ccc(Cl)cc2)sc1C(=O)Nc1cccc2c(=O)[nH][nH]c(=O)c12 | > 100 | > 100 | 69.2 µM | > 100 | 80.3 µM | 33 | > 100 | 44.2 µM | > 100 µM |  |  |  |  |  |  |  |  |  |  |  |
| CC(NC1CCCC[C@@H]1O)c1ccccc1 (stereo not given in full) | > 100 | > 100 | > 100 µM | > 100 | > 100 µM | > 100 | > 100 | > 100 µM | > 100 µM |  |  |  |  |  |  |  |  |  |  |  |
| Nc1ccc(C(=O)N/C(=C\c2ccc3c(c2)OCO3)c2nc3ccccc3s2)cc1 | 23.6 | 34 | 27.9 µM | 25.1 |  |  | 25.9 | 25.9 µM | 36.5 µM |  |  |  |  |  |  |  |  |  |  |  |
| COc1ccc(-c2cn3ccnc3c(-c3ccc(Cl)cc3)n2)cc1 | > 100 |  | > 100 µM | > 100 |  | > 100 | > 100 | > 100 µM | > 100 µM | 4.51 | 28.2 µM | 5.56 | > 100 | 5.61 | 7.95 | 5.37 µM | 2.39 µM | 9.52 |  |  |
| O=C(C#Cc1ccccc1)NC/C=C/c1ccccc1 | > 100 | > 100 | 37 µM | > 100 | > 100 µM | > 100 | > 100 | > 100 µM | > 100 µM |  |  |  |  |  |  |  |  |  |  |  |
| O=C(Nc1ccccc1)N1C(c2ccccc2)=N[C@@H](c2ccccc2)[C@@H]1c1ccccc1 | 35.2 | 76.1 | 34.2 µM | 44.6 | 34.7 µM | 28.2 | 30.6 | > 100 µM | 45.1 µM |  |  |  |  |  |  |  |  |  |  |  |
| CCOC(=N)CC(=O)Nc1ccccc1CC | > 100 | > 100 | > 100 µM | > 100 | > 100 µM | > 100 | > 100 | > 100 µM | > 100 µM |  |  |  |  |  |  |  |  |  |  |  |
| COc1ccccc1/C=C(\NC(=O)c1ccccc1)c1nc2ccccc2[nH]1 | > 100 | > 100 | > 100 µM | > 100 | > 100 µM | > 100 | > 100 | > 100 µM | > 100 µM |  |  |  |  |  |  |  |  |  |  |  |
| Nc1ccccc1SC(/C=C/NNC1=NC(c2ccccc2)C(c2ccccc2)=NN1)c1ccccc1 (stereo not given) | 29.1 | 33.3 | 27.1 µM | 28.7 | 30.1 µM | 27.1 | 27 | 29 µM | 37.1 µM |  |  |  |  |  |  |  |  |  |  |  |
| CN(C)C(=S)/N=c1\ssc(=Nc2ccccc2)n1-c1ccccc1 | > 100 | 64.4 | 44.3 µM | 18.9 | > 100 µM | 87 | > 100 | 94.4 µM | > 100 µM |  |  |  |  |  |  |  |  |  |  |  |
| CCCCS(=O)(=O)c1cc(Nc2ccc(O)c3c2C(=O)c2ccccc2C3=O)ccc1C | > 100 |  | > 100 µM |  |  |  | > 100 |  | > 100 µM | > 100 | 14.6 µM | 1.25 | > 100 |  |  | > 100 µM |  | > 100 |  |  |
| NCCOCCOCC(=O)O | > 100 | > 100 | > 100 µM | > 100 | > 100 µM |  | > 100 | > 100 µM | > 100 µM |  |  |  |  |  |  |  |  |  |  |  |
| OC(Cc1cccc2ccccc12)CN1CCC(c2ccccc2)CC1 (stereo not given) | 29.9 | 28.1 | 23 µM |  |  | 29.5 | 26.8 | 27.1 µM | 27.7 µM |  |  |  | 32.7 |  |  |  |  |  |  |  |
| CN1C2C=CC(=O)C1C(C#N)C2 (stereo not given) | > 100 | > 100 | 64.3 µM and > 100 µM |  | 51 µM and > 100 µM |  | > 100 | 49.6 µM and > 100 µM | 15.7 µM and > 100 µM |  | 23.9 µM and 57.7 µM |  | > 100 |  |  | 30 µM and > 100 µM | 20.6 µM and 44.2 µM |  |  |  |
| Cc1cc(O)c2c(c1)OC1(C)CCC3C(C)(C)CCCC34COC2C14 (stereo not given) | 30 |  |  | 33.5 | 26.3 µM | 27.3 |  | 24.8 µM | 29.5 µM |  |  |  |  |  |  |  |  |  |  |  |
| NC(=S)c1cccc(C2Nc3ccccc3O2)c1 (stereo not given) | > 100 | > 100 | > 100 µM | > 100 | > 100 µM |  | > 100 | > 100 µM | > 100 µM |  |  |  | > 100 |  |  |  |  |  |  |  |
| N#C/C(=C/C=C/c1cccc(Cl)c1)S(=O)c1ccccc1 (stereo not given) |  | 1.32 | 0.568 µM | 1.16 | 2.69 µM | 0.343 | 2.68 | 2.23 µM | 1.7 µM |  | 0.233 µM |  |  | 0.266 | 0.175 | 1.23 µM | 0.803 µM | 0.391 | 0.359 | 1.05 |
| O=C(O)C1CC2C=CCC(C2)C1 (stereo not given) | > 100 | > 100 | > 100 µM | > 100 | > 100 µM | > 100 | > 100 | > 100 µM | > 100 µM |  |  |  |  |  |  |  |  |  |  |  |
| COC(=O)CCC(NC(=S)N/N=C(\C)c1cccs1)C(=O)OC (stereo not given) | > 100 | > 100 | > 100 µM | > 100 | > 100 µM | > 100 | > 100 | > 100 µM | > 100 µM |  |  |  |  |  |  |  |  |  |  |  |
| COC(=O)C1=C(O)c2cc(OC)c(OC)c(OC)c2C(c2ccc3c(c2)OCO3)[C@@H]1C(=O)OC (stereo not given in full) | > 100 | > 100 | 6.26 µM | > 100 | > 100 µM | > 100 | > 100 | > 100 µM | > 100 µM |  |  |  |  |  |  |  |  |  |  |  |
| O=S1(=O)CCC2=CC(C(F)(F)F)=CC(C(F)(F)F)=CN21 | 0.779 | 2.13 | 6.01 µM | 4.24 | 2.26 µM | 4.95 | 4.54 | 9.38 µM | 3.93 µM |  |  |  |  |  |  |  |  |  |  |  |
| COc1ccc(C2=NNC(c3sc(Cl)nc3Cl)C2)cc1 (stereo not given) | 23.6 |  | 46.8 µM | 25.4 | 29 µM | 13.7 | 24.8 |  | 26.4 µM | 4.87 | 18.4 µM | 3.28 | 16.4 | 11.5 | 3.25 | 10.9 µM |  | 9.21 |  | 11.2 |
